The text below walks through data of patent publication US5854407A, “15-hydroxy 6,9-hemiacetal erythromycin compounds” (Takeda Chemical Corporation, priority 1992, dated 1998).

Read-outs that look alike come from different tables or passages of the source.

Data set [1] in a line: Metabolite formation and distribution in dogs after i.v. lactobionate of compound (1). The settings on record: dog, lactobionate of compound (1) 10 mg/kg, iv. The format is in vivo. Here is the method:
(§1) Namely, the present inventors found an active metabolite in vivo which promoted the gastrointestinal motor function (had GMS activity), when compound (1) or (2) of 14-membered ring macrolides having the structural formula shown in Table 1 below were given to the animals. Compound (1) was intravenously given to the dogs, followed by solvent extraction from the livers 30 minutes after administration, chromatography and preparative HPLC to 15 obtain two active metabolites, compounds (3) and (4). The present inventors were able to determine that the chemical structures of these compounds were 15- and 14-hydroxyl derivatives of compound (1), respectively. Compound (2) was treated similarly to obtain corresponding compounds (7) and (8).
The lactobionate of the compound (1) (10 mg/kg, iv) was injected into the fore-limb of the dog, and the blood, the liver, the bile and the urine were subjected to HP-20 chromatography. After extraction with ethyl acetate, active metabolites were determined. […] The liver was collected 30 minutes after administration, and an extracted concentrated solution thereof was subjected to HP-20 chromatography. The 80% v/v methanol/0.005N HCl fraction was extracted with ethyl acetate, and then, the extract was concentrated to obtain a powder. […]

Data set [2] has as its system Gastric Motor of Dogs. Kind of data set: Effect (GMS activity) on gastric motor of dogs (strain gauge force transducer, gastric antrum, i.v.). Conditions: for ED200: dogs; for GMS activity compared with starting compound: compared with the respective starting compounds (1) and (2); for gastrointestinal motor promoting effect: in vivo test of dogs, in words. The format is in vivo, dogs (Beagles). The source says: Effect (GMS activity) on Gastric Motor of Dogs was studied.
Beagles having a body weigh of about 10 kg were subjected to laparotomy under pentobarbital anesthesia, and a strain gauge force transducer was attached to the gastric antrum of each of the beagles. The beagles were used for the experiment more than 2 weeks after the operation. A lead wire of the strain gauge force transducer was connected to a recorder through an amplifier and the recorder records gastric contractions. Signals from the amplifier were supplied to a signal processor (NEC Sanei).
Each of the test compounds was dissolved in ethanol, and lactobionic acid (1 mg/mg of test compound) was added thereto, followed by dilution with physiological saline. The resulting solution was intravenously given 15 minutes after termination of the natural interdigestive migrating contractions.
The area of gastric contractions induced by administration of the test compounds was measured by use of the signal processor. Taking the area at the time that the maximum contraction of the interdigestive migrating contractions was kept for 1 minute as 100%, the dosage inducing a contraction area of 200% (ED200 value) was determined from dosage action curves.
The action (GMS activity) of the above-mentioned compounds on the gastric motor of the dogs was measured.
The measurement was carried out in a manner similar to that of Experimental Example 1.

Data set [3] is described as follows: Physicochemical nature (basicity, fat solubility).
For data set [4], the system named is gastrointestinal motor. Kind of data set: GMS activity of metabolites isolated from dogs. Conditions: metabolites after compound (1), dog 10 mg/kg iv. The format is in vivo. As to the method: as §1
First, the present inventors examined whether or not metabolites promoting the gastrointestinal motor (having GMS activity) were formed in vivo when the compound (1) or (2), the 6,9-hemiacetal-erythromycin derivative known in the art, was given to the animal.
The lactobionate of the compound (1) (10 mg/kg, iv) was injected into the fore-limb of the dog, and the blood, the liver, the bile and the urine were subjected to HP-20 chromatography. After extraction with ethyl acetate, active metabolites were determined. […] The liver was collected 30 minutes after administration, and an extracted concentrated solution thereof was subjected to HP-20 chromatography. […]

Data set [5] concerns gastrointestinal peristaltic movement. The settings on record: literature; cited from earlier work.
For data set [6], the system named is mice. Kind of data set: Acute toxicity test using mice (intravenous injection). The format is in vivo. The settings on record: 100 mg/kg.
Setting [7] is: Canis lupus familiaris, iv, Table 3, dose inducing contraction area of 200%, i.v., as lactobionic acid solution, read-out: ED200.
The mark [8] stands for this setting: Canis lupus familiaris, iv, Table 4, Experimental Example 2, similar to Experimental Example 1, read-out: ED200.

Turning to `CC[C@H]1OC(=O)[C@H](C)[C@@H](O[C@H]2C[C@@](C)(OC)[C@@H](O)[C@H](C)O2)[C@H](C)[C@@H](O[C@@H]2O[C@H](C)C[C@H](N(C)C(C)C)[C@H]2O)[C@@]2(C)CC(C)=C(O2)[C@H](C)[C@@H](O)[C@]1(C)O` [Compound (1), reference compound], the “presence in blood, liver, bile and urine” value in data set [1] is recorded as “largely present in the blood”. Moreover, the ED200 in data set [2] (setting [7]) came out at 0.9 µg/kg; in data set [2] (Table 4, Experimental Example 2, similar to Experimental Example 1), 0.9 µg/kg.

For the compound `CC[C@H]1OC(=O)[C@H](C)[C@@H](O[C@H]2C[C@@](C)(OC)[C@@H](O)[C@H](C)O2)[C@H](C)[C@@H](O[C@@H]2O[C@H](C)C[C@H](N(C)CC)[C@H]2O)[C@@]2(C)CC(C)=C(O2)[C@H](C)[C@@H](O)[C@]1(C)O` [Compound (2), reference compound], the ED200 in data set [2] (setting [7]) worked out at 8 µg/kg.

With `CO[C@]1(C)C[C@H](O[C@H]2[C@H](C)[C@@H](O[C@@H]3O[C@H](C)C[C@H](N(C)C(C)C)[C@H]3O)[C@@]3(C)CC(C)=C(O3)[C@H](C)[C@@H](O)[C@](C)(O)[C@@H](CCO)OC(=O)[C@@H]2C)O[C@@H](C)[C@@H]1O` [Compound (3), N-demethyl-15-hydroxy-N-isopropyl-8,9-anhydroerythromycin A 6,9-hemiacetal], the “basicity and fat solubility” value in data set [3] is listed as “basic fat-soluble properties”. In data set [4], the “GMS activity of metabolites / fractions” value is on record as “active”. In data set [2] (setting [7]), the ED200 worked out at 0.5 µg/kg. In data set [2], the “GMS activity compared with starting compound” value is recorded as “stronger GMS activity than the respective starting compounds” and the “gastrointestinal motor promoting effect” value is given as “strong gastrointestinal motor promoting effect”.

With `CO[C@]1(C)C[C@H](O[C@H]2[C@H](C)[C@@H](O[C@@H]3O[C@H](C)C[C@H](N(C)C(C)C)[C@H]3O)[C@@]3(C)CC(C)=C(O3)[C@H](C)[C@@H](O)[C@](C)(O)[C@@H](C(C)O)OC(=O)[C@@H]2C)O[C@@H](C)[C@@H]1O` (stereo partly shown) [Compound (4), N-demethyl-14-hydroxy-N-isopropyl-8,9-anhydorerythromycin A 6,9-hemiacetal], the “basicity and fat solubility” value in data set [3] is given as “basic fat-soluble properties”. Besides, in data set [4], the “GMS activity of metabolites / fractions” value is “active”. In addition, the ED200 in data set [2] (setting [7]) turned out to be 0.4 µg/kg. Further, in data set [2], the “GMS activity compared with starting compound” value is “stronger GMS activity than the respective starting compounds” and the “gastrointestinal motor promoting effect” value was “strong gastrointestinal motor promoting effect”.

On to `CC1=C2O[C@](C)(C1)[C@H](O[C@@H]1O[C@H](C)C[C@H](N(C)C(C)C)[C@H]1O)[C@@H](C)[C@H](O[C@H]1C[C@@](C)(O)[C@@H](O)[C@H](C)O1)[C@@H](C)C(=O)O[C@H](C(C)O)[C@@](C)(O)[C@H](O)[C@H]2C` (stereo partly shown) [Compound (5), 3'-O-demethyl-N-demethyl-14-hydroxy-N-isopropyl-8,9-anhydroerythromycin A 6,9-hemiacetal], for which the ED200 in data set [2] (setting [8]) stood at 0.21 µg/kg. For the same compound, in data set [2], the “GMS activity compared with starting compound” value was “stronger GMS activity than the starting compound (1)”.

As for `CC[C@H]1OC(=O)[C@H](C)[C@@H](O[C@H]2C[C@@](C)(O)[C@@H](O)[C@H](C)O2)[C@H](C)[C@@H](O[C@@H]2O[C@H](C)C[C@H](N(C)C(C)C)[C@H]2O)[C@@]2(C)CC(C)=C(O2)[C@H](C)[C@@H](O)[C@]1(C)O` [Compound (6)], the ED200 in data set [2] (setting [8]) came out at 0.26 µg/kg. In data set [2], the “GMS activity compared with starting compound” value is on record as “stronger GMS activity than the starting compound (1)”.

Regarding `CCN(C)[C@H]1C[C@@H](C)O[C@@H](O[C@@H]2[C@@H](C)[C@H](O[C@H]3C[C@@](C)(OC)[C@@H](O)[C@H](C)O3)[C@@H](C)C(=O)O[C@H](CCO)[C@@](C)(O)[C@H](O)[C@@H](C)C3=C(C)C[C@@]2(C)O3)[C@@H]1O` [Compound (7), N-demethyl-15-hydroxy-N-ethyl-8,9-anhydroerythromycin A 6,9-hemiacetal], the “basicity and fat solubility” value in data set [3] is “basic fat-soluble properties”. In addition, the ED200 in data set [2] (setting [7]) is 3.2 µg/kg. Moreover, in data set [2], the “GMS activity compared with starting compound” value is “stronger GMS activity than the respective starting compounds” and the “gastrointestinal motor promoting effect” value is on record as “strong gastrointestinal motor promoting effect”.

As for `CCN(C)[C@H]1C[C@@H](C)O[C@@H](O[C@@H]2[C@@H](C)[C@H](O[C@H]3C[C@@](C)(OC)[C@@H](O)[C@H](C)O3)[C@@H](C)C(=O)O[C@H](C(C)O)[C@@](C)(O)[C@H](O)[C@@H](C)C3=C(C)C[C@@]2(C)O3)[C@@H]1O` (stereo partly shown) [Compound (8), N-demethyl-14-hydroxy-N-ethyl-8,9-anhydroerythromycin A 6,9-hemiacetal], in data set [3], the “basicity and fat solubility” value is reported as “basic fat-soluble properties”. The ED200 in data set [2] (setting [7]) amounted to 1.8 µg/kg. In data set [2], the “GMS activity compared with starting compound” value is given as “stronger GMS activity than the respective starting compounds” and the “gastrointestinal motor promoting effect” value is listed as “strong gastrointestinal motor promoting effect”.

Turning to `CC[C@H]1OC(=O)[C@H](C)[C@@H](O[C@H]2C[C@@](C)(OC)[C@@H](O)[C@H](C)O2)[C@H](C)[C@@H](O[C@@H]2O[C@H](C)C[C@H](N(C)C)[C@H]2O)[C@](C)(O)C[C@@H](C)C(=O)[C@H](C)[C@@H](O)[C@]1(C)O` [ERM A, erythromycin A], the “motilin-like action / GMS activity” value in data set [5] was “motilin-like action promoting the gastrointestinal peristaltic movement”.

`CCN(C)[C@H]1C[C@@H](C)O[C@@H](O[C@@H]2[C@@H](C)[C@H](O[C@H]3C[C@@](C)(OC)[C@@H](O)[C@H](C)O3)[C@@H](C)C(=O)O[C@H](C(C)O)[C@@](C)(O)[C@H](O)[C@@H](C)C3=C(C)C[C@@]2(C)O3)[C@@H]1O` (stereo partly shown) [lactobionate of the compound (8)]: the “death in acute toxicity test” value in data set [6] is given as “no case of death was observed”.
